Tests used:
[1] = test system: Escherichia coli ATCC 25922; assay: Minimum inhibitory concentration (MIC), CLSI broth micro-dilution, E. coli; format: cell-based; conditions: Escherichia coli, ATCC25922, 22 h
In short: (§1)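 Colonies grown 20 h at 35° C on Trypticase Soy agar (MRSA) or Luria agar (E. coli) were suspended in cation-adjusted Mueller Hinton broth with 0.002% Tween-80. Suspensions were added at OD600 0.0005 to 10-point twofold compound dilutions, then incubated 22 h at 35° C.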

[2] = test system: Methicillin Resistant Staphylococcus aureus strain USA 200; assay: Minimum inhibitory concentration (MIC), CLSI broth micro-dilution, S. aureus; format: cell-based; conditions: Staphylococcus aureus, MRSA / USA200, MRSA USA 200, cation adjusted Mueller Hinton Broth + 0.002% Tween-80, 35° C., 22 hours
In short: as §1

[3] = Table 6, cation adjusted Mueller Hinton Broth + 0.002% Tween-80, 35° C.

MIC [1, 3] | MIC ([2]; Table 6) | SMILES | MIC ([1]; Table 8, cation adjusted Mueller Hinton Broth + 0.002% Tween-80, 35° C.) | MIC ([2]; Table 8)
0.094 µM | 0.023 µM | Cc1nc(-c2ccc(OC3C[C@H]4CCCC[C@H]4C3)cc2)nc(C)c1C(=O)N[C@@H](CCN)C(=O)N(C)[C@@H]1C(=O)N[C@@H](C)C(=O)N[C@H](C(=O)NCC#N)Cc2ccc(OCCN)c(c2)-c2cc1ccc2OCCN (mixture of isomers) [Compound 349, rac-(8S,11S,14S)-3,18-bis(2-aminoethoxy)-N-(cyanomethyl)-11-methyl-14-[methyl-[rac-(2S)-4-amino-2-[[4,6-dimethyl-2-[4-[[rac-(3aR,7aS)-2,3,3a,4,5,6,7,7a-octahydro-1H-inden-2-yl]oxy]phenyl]pyrimidine-5-carbonyl]amino]butanoyl]amino]-10,13-dioxo-9,12-diazatricyclo[13.3.1.12,6]icosa-1(18),2(20),3,5,15(19),16-hexaene-8-carboxamide] |  | 
 |  | CCCCCOc1ccc(-c2nc(C)c(C(=O)N[C@@H](CCN)C(=O)N(C)[C@@H]3C(=O)N[C@@H](C)C(=O)N[C@H](C(=O)O)Cc4ccc(OCCN)c(c4)-c4cc3ccc4O)c(C)n2)cc1 (racemic) [Compound 642, rac-(8S,11S,14S)-3-(2-aminoethoxy)-18-hydroxy-11-methyl-14-[methyl-[rac-(2S)-4-amino-2-[[4,6-dimethyl-2-(4-pentoxyphenyl)pyrimidine-5-carbonyl]amino]butanoyl]amino]-10,13-dioxo-9,12-diazatricyclo [13.3.1.12,6]icosa-1(18),2(20),3,5,15(19), 16-hexaene-8-carboxylic acid] | 0.23 µM | 0.21 µM
0.19 µM | 0.031 µM | CCCC(F)(F)c1ccc(-c2nc(C)c(C(=O)N[C@@H](CCN)C(=O)N(C)[C@@H]3C(=O)N[C@@H](C)C(=O)N[C@H](C(=O)NCC#N)Cc4ccc(OCCN)c(c4)-c4cc3ccc4OCCN)c(C)n2)cc1 (racemic) [Compound 294, rac-(8S,11S,14S)-3,18-bis(2-aminoethoxy)-N-(cyanomethyl)-11-methyl-14-[methyl-[rac-(2S)-4-amino-2-[[2-[4-(1,1-difluorobutyl)phenyl]-4,6-dimethyl-pyrimidine-5-carbonyl]amino]butanoyl]amino]-10,13-dioxo-9,12-diazatricyclo[13.3.1.12,6]icosa-1(18),2(20),3,5,15(19),16-hexaene-8-carboxamide] |  | 
0.24 µM | 0.061 µM | Cc1nc(-c2ccc(C(C)(C)C)cc2)nc(C)c1C(=O)N[C@@H](CCN)C(=O)N(C)[C@@H]1C(=O)N[C@@H](C)C(=O)N[C@H](C(=O)NCC#N)Cc2ccc(O)c(c2)-c2cc1ccc2OCCN (racemic) [Compound 254, rac-(8S,11S,14S)-18-(2-aminoethoxy)-N-(cyanomethyl)-3-hydroxy-11-methyl-14-[methyl-[rac-(2S)-4-amino-2-[[2-(4-tert-butylphenyl)-4,6-dimethyl-pyrimidine-5-carbonyl]amino]butanoyl]amino]-10,13-dioxo-9,12-diazatricyclo[13.3.1.12,6]icosa-1(18),2(20),3,5,15(19),16-hexaene-8-carboxamide] |  | 
0.077 µM | 0.017 µM | CCCC#Cc1ccc(-c2ncc(C(=O)N[C@@H](CCN)C(=O)N(C)[C@@H]3C(=O)N[C@@H](C)C(=O)N[C@H](C(=O)NCC#N)Cc4ccc(OCCN)c(c4)-c4cc3ccc4OCCN)c(C)n2)cc1 (racemic) [Compound 227, rac-(8S,11S,14S)-3,18-bis(2-aminoethoxy)-N-(cyanomethyl)-11-methyl-14-[methyl-[rac-(2S)-4-amino-2-[[4-methyl-2-(4-pent-1-ynylphenyl)pyrimidine-5-carbonyl]amino]butanoyl]amino]-10,13-dioxo-9,12-diazatricyclo[13.3.1.12,6]icosa-1(18),2(20),3,5,15(19),16-hexaene-8-carboxamide] |  | 
0.33 µM | 0.047 µM | Cc1nc(-c2ccc(C(C)(C)C)cc2)ccc1C(=O)N[C@@H](CCN)C(=O)N(C)[C@@H]1C(=O)N[C@@H](C)C(=O)N[C@H](C(=O)NCC#N)Cc2ccc(O)c(c2)-c2cc1ccc2OCCN (racemic) [Compound 526, rac-(8S,11S,14S)-18-(2-aminoethoxy)-N-(cyanomethyl)-3-hydroxy-11-methyl-14-[methyl-[rac-(2S)-4-amino-2-[[6-(4-tert-butylphenyl)-2-methyl-pyridine-3-carbonyl]amino]butanoyl]amino]-10,13-dioxo-9,12-diazatricyclo[13.3.1.12,6]icosa-1(18),2(20),3,5,15(19),16-hexaene-8-carboxamide] |  | 
4.7 µM | 0.15 µM | Cc1nc(-c2ccc(CC(C)C)cc2)ccc1C(=O)N[C@@H](CCN)C(=O)N(C)[C@@H]1C(=O)N[C@@H](C)C(=O)N[C@H](C(=O)NCC#N)Cc2ccc(O)c(c2)-c2cc1ccc2O (racemic) [Compound 430, rac-(8S,11S,14S)-N-(cyanomethyl)-3,18-dihydroxy-11-methyl-14-[methyl-[rac-(2S)-4-amino-2-[[6-(4-isobutylphenyl)-2-methyl-pyridine-3-carbonyl]amino]butanoyl]amino]-10,13-dioxo-9,12-diazatricyclo[13.3.1.12,6]icosa-1(18),2(20),3,5,15(19),16-hexaene-8-carboxamide] |  | 
0.25 µM | 0.023 µM | Cc1nc(-c2ccc(C(C)(C)C)cc2)c([N+](=O)[O-])cc1C(=O)N[C@@H](CCN)C(=O)N(C)[C@@H]1C(=O)N[C@@H](C)C(=O)N[C@H](C(=O)NCC#N)Cc2ccc(OCCN)c(c2)-c2cc1ccc2OCCN (racemic) [Compound 406, rac-(8S,11S,14S)-3,18-bis(2-aminoethoxy)-N-(cyanomethyl)-11-methyl-14-[methyl-[rac-(2S)-4-amino-2-[[6-(4-tert-butylphenyl)-2-methyl-5-nitro-pyridine-3-carbonyl]amino]butanoyl]amino]-10,13-dioxo-9,12-diazatricyclo[13.3.1.12,6]icosa-1(18),2(20),3,5,15(19),16-hexaene-8-carboxamide] |  | 
0.5 µM | 0.016 µM | COc1cc(C(=O)N[C@@H](CCN)C(=O)N(C)[C@@H]2C(=O)N[C@@H](C)C(=O)N[C@H](C(=O)NCC#N)Cc3ccc(OCCN)c(c3)-c3cc2ccc3OCCN)c(C)nc1-c1ccc(C(C)(C)C)cc1 (racemic) [Compound 403, rac-(8S,11S,14S)-3,18-bis(2-aminoethoxy)-N-(cyanomethyl)-11-methyl-14-[methyl-[rac-(2S)-4-amino-2-[[6-(4-tert-butylphenyl)-5-methoxy-2-methyl-pyridine-3-carbonyl]amino]butanoyl]amino]-10,13-dioxo-9,12-diazatricyclo[13.3.1.12,6]icosa-1(18),2(20),3,5,15(19),16-hexaene-8-carboxamide] |  | 
1 µM | 0.031 µM | Cc1nc(-c2ccc(C(C)(C)C)cc2)nc(C)c1C(=O)N[C@@H](COCCN)C(=O)N(C)[C@@H]1C(=O)N[C@@H](C)C(=O)N[C@H](C(=O)NCC#N)Cc2ccc(OCCN)c(c2)-c2cc1ccc2OCCN (racemic) [Compound 495, rac-(8S,11S,14S)-3,18-bis(2-aminoethoxy)-N-(cyanomethyl)-11-methyl-14-[methyl-[rac-(2S)-3-(2-aminoethoxy)-2-[[2-(4-tert-butylphenyl)-4,6-dimethyl-pyrimidine-5-carbonyl]amino]propanoyl]amino]-10,13-dioxo-9,12-diazatricyclo[13.3.1.12,6]icosa-1(18),2(20),3,5,15(19),16-hexaene-8-carboxamide] |  | 
2.1 µM | 0.53 µM | Cc1nc(-c2ccc(C3(C)COC3)cc2)ncc1C(=O)N[C@@H](CCN)C(=O)N(C)[C@@H]1C(=O)N[C@@H](C)C(=O)N[C@H](C(=O)NCC#N)Cc2ccc(OCCN)c(c2)-c2cc1ccc2OCCN (racemic) [Compound 238, rac-(8S,11S,14S)-3,18-bis(2-aminoethoxy)-N-(cyanomethyl)-11-methyl-14-[methyl-[rac-(2S)-4-amino-2-[[4-methyl-2-[4-(3-methyloxetan-3-yl)phenyl]pyrimidine-5-carbonyl]amino]butanoyl]amino]-10,13-dioxo-9,12-diazatricyclo[13.3.1.12,6]icosa-1(18),2(20),3,5,15(19),16-hexaene-8-carboxamide] |  | 

SMILES | MIC [1, 3] | MIC ([2]; Table 6) | MIC ([1]; Table 8, cation adjusted Mueller Hinton Broth + 0.002% Tween-80, 35° C.) | MIC ([2]; Table 8)
CCCCCOc1ccc(-c2cc(C)c(C(=O)N[C@@H](CCN)C(=O)N(C)[C@@H]3C(=O)N[C@@H](C)C(=O)N[C@H](C(=O)NCC#N)Cc4ccc(OCCN)c(c4)-c4cc3ccc4OCCN)c(C)n2)cc1 (racemic) [Compound 362, rac-(8S,11S,14S)-3,18-bis(2-aminoethoxy)-N-(cyanomethyl)-11-methyl-14-[methyl-[rac-(2S)-4-amino-2-[[2,4-dimethyl-6-(4-pentoxyphenyl)pyridine-3-carbonyl]amino]butanoyl]amino]-10,13-dioxo-9,12-diazatricyclo[13.3.1.12,6]icosa-1(18),2(20),3,5,15(19),16-hexaene-8-carboxamide] | 0.25 µM | 0.063 µM |  | 
CCCCOc1c(C)cc(-c2ncc(C(=O)N[C@@H](CCN)C(=O)N(C)[C@@H]3C(=O)N[C@@H](C)C(=O)N[C@H](C(=O)NCC#N)Cc4ccc(OCCN)c(c4)-c4cc3ccc4OCCN)c(C)n2)cc1C (racemic) [Compound 243, rac-(8S,11S,14S)-3,18-bis(2-aminoethoxy)-N-(cyanomethyl)-11-methyl-14-[methyl-[rac-(2S)-4-amino-2-[[2-(4-butoxy-3,5-dimethyl-phenyl)-4-methyl-pyrimidine-5-carbonyl]amino]butanoyl]amino]-10,13-dioxo-9,12-diazatricyclo[13.3.1.12,6]icosa-1(18),2(20),3,5,15(19),16-hexaene-8-carboxamide] | 0.13 µM | 0.008 µM |  | 
